From patent publication US20180170941A1 (priority 2016, published 2018) come the findings set out here.

Bounds are passed on as bounds.

In one assay the target is T1, α5β3γ2 GABAA receptors (Ltk cell membranes) (Homo sapiens, UniProt P18507+P31644).
T1 construct: membranes
T1 sequence (P31644 32-462): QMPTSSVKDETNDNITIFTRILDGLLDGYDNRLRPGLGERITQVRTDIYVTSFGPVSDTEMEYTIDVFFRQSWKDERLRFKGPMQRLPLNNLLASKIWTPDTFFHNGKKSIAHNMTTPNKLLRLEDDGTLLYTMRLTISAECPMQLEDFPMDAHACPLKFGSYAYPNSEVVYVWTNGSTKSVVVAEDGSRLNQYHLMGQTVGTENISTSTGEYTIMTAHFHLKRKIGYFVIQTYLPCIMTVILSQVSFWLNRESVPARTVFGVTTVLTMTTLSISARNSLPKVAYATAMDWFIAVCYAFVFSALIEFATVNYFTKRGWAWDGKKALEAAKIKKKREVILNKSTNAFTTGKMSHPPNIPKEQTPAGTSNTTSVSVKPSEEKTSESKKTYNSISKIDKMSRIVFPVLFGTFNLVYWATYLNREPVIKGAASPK
T1 sequence (P28472 26-473 partner): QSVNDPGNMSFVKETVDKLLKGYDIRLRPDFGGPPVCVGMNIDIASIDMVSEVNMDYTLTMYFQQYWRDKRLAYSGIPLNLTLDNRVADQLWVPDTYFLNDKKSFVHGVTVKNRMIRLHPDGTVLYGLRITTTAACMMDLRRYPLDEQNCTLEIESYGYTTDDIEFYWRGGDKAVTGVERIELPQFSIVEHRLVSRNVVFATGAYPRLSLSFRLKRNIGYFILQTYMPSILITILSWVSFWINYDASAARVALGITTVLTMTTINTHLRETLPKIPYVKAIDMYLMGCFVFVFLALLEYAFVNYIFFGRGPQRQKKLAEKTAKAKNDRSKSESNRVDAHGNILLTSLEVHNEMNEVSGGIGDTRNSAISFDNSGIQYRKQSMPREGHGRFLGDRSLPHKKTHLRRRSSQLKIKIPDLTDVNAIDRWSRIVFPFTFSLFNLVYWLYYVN
T1 sequence (P18507 40-475): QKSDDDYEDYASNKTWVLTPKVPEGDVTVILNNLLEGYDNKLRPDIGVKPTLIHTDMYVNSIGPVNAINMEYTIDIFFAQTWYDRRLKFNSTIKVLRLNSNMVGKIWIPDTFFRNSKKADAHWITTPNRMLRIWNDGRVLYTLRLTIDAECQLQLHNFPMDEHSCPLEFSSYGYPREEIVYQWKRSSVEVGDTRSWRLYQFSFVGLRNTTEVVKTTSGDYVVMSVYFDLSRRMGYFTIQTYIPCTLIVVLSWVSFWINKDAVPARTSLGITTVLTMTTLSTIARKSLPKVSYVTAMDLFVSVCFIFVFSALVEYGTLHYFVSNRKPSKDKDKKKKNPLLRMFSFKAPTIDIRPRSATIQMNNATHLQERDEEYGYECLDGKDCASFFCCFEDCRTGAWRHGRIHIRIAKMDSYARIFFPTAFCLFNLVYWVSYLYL
Nature of the assay: Binding activity of test compounds on GABAAR: inhibition of [3H]Ro15-1788 binding.
Conditions: not given
In a few lines: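 Membranes from dexamethasone-induced Ltk cells (α5 line: 0.5 μM, 1 day); binding with [3H]Ro15-1788 for 1 h at 4 °C in 50 mM KH2PO4, 1 mM EDTA, 0.2 M KCl, pH 7.4, 0.2 mg/ml α5 protein. Nonspecific binding defined by 10 μM diazepam; filtration, scintillation counting, triplicates.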
In general, Ki refers to a measure of affinity in units of concentration, obtained from inhibition or displacement. A lower Ki goes with higher affinity. The compound `CC(C)OCc1nnc2n1Cc1c(/C=C/c3ccccc3)ncn1-c1ccc(Cl)cc1-2` [Compound 446] gave a Ki greater than 1000 nM.
Same read-out and setting: under `CC(C)OCc1nnc2n1Cc1c(/C=C/c3ccc(F)cc3)ncn1-c1ccc(Cl)cc1-2` [Compound 447] stands greater than 1000 nM.

The assay is the same for the next values; noted with them: GABA α5 Binding Ki Values, inhibition of [3H]Ro15-1788 binding; reported as ranges.
As to `FC(F)(F)c1ccc(-c2coc(-c3ncn4c3Cc3cnnn3-c3cc(Cl)ccc3-4)n2)cc1` [Compound 386], the Ki was greater than 1000 nM.
For the compound `CC(C)c1coc(-c2ncn3c2Cc2cnnn2-c2cc(Cl)ccc2-3)n1` [Compound 387], the Ki was less than 100 nM.
For `COc1ccc2c(c1)-n1nncc1Cc1c(-c3nc(-c4ccccc4)co3)ncn1-2` [Compound 388], the Ki was less than 100 nM.
Consider `COc1ccc2c(c1)-n1nncc1Cc1c(-c3nc(-c4cccc(C(F)(F)F)c4)co3)ncn1-2` [Compound 389], for which the Ki was greater than 1000 nM.
The same measure, in the same setting: under `COc1ccc2c(c1)-n1nncc1Cc1c(-c3nc(-c4ccc(C(F)(F)F)cc4)co3)ncn1-2` [Compound 390] stands greater than 1000 nM.
For the compound `COc1ccc2c(c1)-n1nncc1Cc1c(-c3nc(-c4ccc(F)c(C(F)(F)F)c4)co3)ncn1-2` [Compound 392], the Ki lay in the range of 100 to 1000 nM.
Still for that read-out and setting: under `Clc1ccc2c(c1)-n1nncc1Cc1c(-c3ncco3)ncn1-2` [Compound 393] stands less than 100 nM; under `COc1ccc2c(c1)-n1nncc1Cc1c(-c3nc(C(C)C)co3)ncn1-2` [Compound 394], less than 100 nM.
Regarding `Clc1ccc2c(c1)-n1nncc1Cc1c(C#Cc3ccccc3)ncn1-2` [Compound 395], the Ki was less than 100 nM.
Still for that read-out and setting: with `Cc1ccccc1C#Cc1ncn2c1Cc1cnnn1-c1cc(Cl)ccc1-2` [Compound 396] the figure was less than 100 nM.
On the same count and under the same terms, with `COc1ccc(C#Cc2ncn3c2Cc2cnnn2-c2cc(Cl)ccc2-3)cc1` [Compound 397] the figure was less than 100 nM; with `FC(F)(F)CC#Cc1ncn2c1Cc1cnnn1-c1cc(Cl)ccc1-2` [Compound 398], less than 100 nM; with `Fc1ccccc1C#Cc1ncn2c1Cc1cnnn1-c1cc(Cl)ccc1-2` [Compound 399], less than 100 nM.
Still for that read-out and setting: with `Clc1ccc2c(c1)-n1nncc1Cc1c(C#Cc3ccccn3)ncn1-2` [Compound 401] the figure was less than 100 nM.
As for `Clc1ccc2c(c1)-n1nncc1Cc1c(C#Cc3cccnc3)ncn1-2` [Compound 402], the Ki was less than 100 nM.
On the same count and under the same terms, with `C#Cc1ncn2c1Cc1cnnn1-c1cc(OC)ccc1-2` [Compound 403] the figure was less than 100 nM; with `COc1ccc2c(c1)-n1nncc1Cc1c(C#Cc3ccccc3)ncn1-2` [Compound 404], less than 100 nM; with `COc1ccc2c(c1)-n1nncc1Cc1c(C#Cc3ccccc3C)ncn1-2` [Compound 405], less than 100 nM.
As for `COc1ccc2c(c1)-n1nncc1Cc1c(C#Cc3ccc(C(F)(F)F)cc3)ncn1-2` [Compound 406], the Ki is less than 100 nM.
`COc1ccc2c(c1)-n1nncc1Cc1c(C#Cc3cccnc3)ncn1-2` [Compound 407] gave a Ki of less than 100 nM.
On the same count and under the same terms, under `COc1ccc2c(c1)-n1nncc1Cc1c(C#Cc3ccccn3)ncn1-2` [Compound 408] stands less than 100 nM.
On the same count and under the same terms, with `COc1cccc(C#Cc2ncn3c2Cc2cnnn2-c2cc(OC)ccc2-3)c1` [Compound 409] the figure was less than 100 nM; with `CC#Cc1ncn2c1Cc1cnnn1-c1cc(OC)ccc1-2` [Compound 410], less than 100 nM; with `COc1ccc2c(c1)-n1nncc1Cc1c(C#Cc3ccccc3F)ncn1-2` [Compound 411], less than 100 nM.
Still for that read-out and setting: with `COc1ccc2c(c1)-n1nncc1Cc1c(C#Cc3ccc(OC(F)(F)F)cc3)ncn1-2` [Compound 412] the figure was less than 100 nM.
`COc1ccc2c(c1)-n1nncc1Cc1c(C#CCc3ccccc3)ncn1-2` [Compound 413] displayed a Ki of less than 100 nM.
On the same count and under the same terms, with `COc1ccc(C#Cc2ncn3c2Cc2cnnn2-c2cc(OC)ccc2-3)cc1` [Compound 414] the figure was less than 100 nM; with `CC(C)C#Cc1ncn2c1Cc1cnnn1-c1cc(Cl)ccc1-2` [Compound 415], less than 100 nM; with `CC#Cc1ncn2c1Cc1cnnn1-c1cc(Cl)ccc1-2` [Compound 416], less than 100 nM.
The same measure, in the same setting: with `COc1ccc2c(c1)-n1nncc1Cc1c(C#CCc3cccc(Cl)c3)ncn1-2` [Compound 417] the figure was less than 100 nM.
The compound `COc1ccc2c(c1)-n1nncc1Cc1c(C#CCc3cccc(OC(F)(F)F)c3)ncn1-2` [Compound 418] returned a Ki of less than 100 nM.
The same measure, in the same setting: under `COc1ccc2c(c1)-n1nncc1Cc1c(C#CCc3cccc(F)c3)ncn1-2` [Compound 419] stands less than 100 nM; under `COc1ccc2c(c1)-n1nncc1Cc1c(C#CCc3ccccc3OC(F)(F)F)ncn1-2` [Compound 420], less than 100 nM.
Compound `COCc1nnc2n1Cc1c(C#CCc3cccc(F)c3)ncn1-c1ccc(Cl)cc1-2` [Compound 421] yielded a Ki of less than 100 nM.
Still for that read-out and setting: with `COCc1nnc2n1Cc1c(C#CCc3cccc(Cl)c3)ncn1-c1ccc(Cl)cc1-2` [Compound 422] the figure was less than 100 nM; with `COCc1nnc2n1Cc1c(C#CCc3cccc(OC(F)(F)F)c3)ncn1-c1ccc(Cl)cc1-2` [Compound 423], less than 100 nM.
Same read-out and setting: under `COc1ccc2c(c1)-n1nncc1Cc1c(C#CC(C)C)ncn1-2` [Compound 424] stands less than 100 nM.
On the same count and under the same terms, with `Cc1noc(-c2ncn3c2Cc2cnnn2-c2cc(Cl)ccc2-3)n1` [Compound 425] the figure was less than 100 nM; with `CC(C)c1noc(-c2ncn3c2Cc2cnnn2-c2cc(Cl)ccc2-3)n1` [Compound 426], less than 100 nM.
Regarding `COCc1nnc2n1Cc1c(-c3noc(C)n3)ncn1-c1ccc(Cl)cc1-2` [Compound 427], the inhibition constant (Ki) is less than 100 nM.
Still for that read-out and setting: under `O=C(C#Cc1ncn2c1Cc1cnnn1-c1cc(Cl)ccc1-2)c1ccccc1` [Compound 448] stands less than 100 nM; under `C#Cc1ncn2c1C(Cc1ccccc1)c1cnnn1-c1cc(OC)ccc1-2` (centres unmarked) [Compound 449], greater than 1000 nM.
Regarding `C#Cc1ncn2c1C(Cc1cccc(F)c1)(Cc1cccc(F)c1)c1cnnn1-c1cc(OC)ccc1-2` [Compound 450], the Ki is greater than 1000 nM.
Still for that read-out and setting: under `C#Cc1ncn2c1C(Cc1ccccc1F)c1cnnn1-c1cc(OC)ccc1-2` (centres unmarked) [Compound 451] stands less than 100 nM; under `Clc1ccc2c(c1)-n1nncc1Cc1c(Br)ncn1-2` [Compound 452], less than 100 nM.
Compound `CC(C)C#Cc1ccc2c(c1)-n1nncc1Cc1c(C#CC(C)C)ncn1-2` [Compound 453] gave a Ki of 100 to 1000 nM.
`CC(C)C#Cc1ccc2c(c1)-n1nncc1Cc1c(Br)ncn1-2` [Compound 454] gave an inhibition constant (Ki) of less than 100 nM.

Still in this assay, the particulars now being: inhibition of [3H]Ro15-1788 binding; reported as ranges.
Take `COCc1nnc2n1Cc1c(COc3ccccc3)ncn1-c1ccc(Cl)cc1-2` [Compound 429]: the inhibition constant Ki was greater than 1000 nM.
Same read-out and setting: with `COCc1nnc2n1Cc1c(COCc3ccccc3)ncn1-c1ccc(Cl)cc1-2` [Compound 430] the figure was greater than 1000 nM; with `COCc1nnc2n1Cc1c(COCc3ccccc3F)ncn1-c1ccc(Cl)cc1-2` [Compound 431], greater than 1000 nM; with `COCc1nnc2n1Cc1c(COCc3cccc(F)c3)ncn1-c1ccc(Cl)cc1-2` [Compound 432], greater than 1000 nM.
In the case of `COCc1nnc2n1Cc1c(COc3ccccc3F)ncn1-c1ccc(Cl)cc1-2` [Compound 433], the inhibitory constant (Ki) was greater than 1000 nM.
The same measure, in the same setting: with `COCc1nnc2n1Cc1c(COc3cccc(F)c3)ncn1-c1ccc(Cl)cc1-2` [Compound 434] the figure was greater than 1000 nM; with `COCc1nnc2n1Cc1c(COc3ccc(F)cc3)ncn1-c1ccc(Cl)cc1-2` [Compound 435], greater than 1000 nM.
